How the values were obtained:
[1] = system: chemokines and cytokines in tumors; assay: Multiplex cytokine/chemokine assay of tumor homogenates; type: in vivo, mouse
Experimental: (§1) Whole tumors were excised at indicated time point post treatment. Tumors were weighed and homogenized in PBS with the presence of protease inhibitor cocktails at a ratio of 1 ml per gram of tissue. 25 μl of supernatants were subjected to a bead-based cytokine and chemokine assay (a mouse inflammation panel and chemokine panel sold under the tradename LEGENDPLEX™ (BioLegend, San Diego, California, United States of America). The assays were analyzed using a LSRII flow cytometer and software sold under the tradename LEGENDPLEX™ (both from BioLegend, San Diego, California, United States of America). IFN-γ was measured using IFN-γ flex CBA set (BD Biosciences, Franklin Lakes, New Jersey, United States of America). TNF-α concentration was measured using ELISA kit from R&D Systems (MTA00B; Minneapolis, Minnesota, United States of America). For nitrite assay, equal weight of tumors were cut into pieces and cultured in DMEM medium for 2 hours. The production of NO in the supernatants was measured indirectly by measuring the concentration of nitrite by using the Griess reagent nitrite measurement kit (Cell Signaling Technology, Danvers, Massachusetts, United States of America; #13547).
(§2) To determine whether RA has direct cytotoxic and/or radiosensitizing effects on tumor cells, MC38 cells were cultured with RA (0 nM to 2000 nM) after IR (0 Gy to 15 Gy) for three days. […] Since both IR and RA regulate immune responses, studies were conducted to examine how the combination treatment changes the tumor immune environment. Using a multiplex assay, the level of chemokines and cytokines in tumors three days after treatment was determined.

MC38 cells [2] = assay: Direct cytotoxic/radiosensitizing effect of RA on cultured tumor cells; type: cell-based, mouse; conditions: RA 0 nM to 2000 nM after IR 0 Gy to 15 Gy, three days
Experimental: as §2, with “determined. Following IR+RA treatment, increased levels of CCL2, CCL3, CCL4 and CCL5 (by 2-fold to 3-fold compared to levels in any single treatment), which are involved in monocyte recruitment, were observed. GM-CSF, a critical cytokine for DC generation, increased by more than 5-fold in whole tumor homogenates.” for “determined.”

nitrite (iNOS product) = assay: Nitrite assay of tumor fragments cultured ex vivo; type: in vivo, mouse; conditions: IR+RA treated tumors, day 4, 2 hours culture
Experimental: as §1

MC38 cells [3] = assay: Tumor re-challenge of cured mice with MC38 cells; type: in vivo, mouse; conditions: mice cured by IR+RA, re-challenged with 5×10^6 MC38 cells
Experimental: 1×10^6 MC38, B16/F1, Renca or CT26 cells were subcutaneously implanted into flanks of mice. Tumors were irradiated using a Phillips IR250 orthovoltage X-ray generator (Phillips, Amsterdam, the Netherlands) operating at 250 kV 15 mA. Subcutaneous local tumors were irradiated by shielding bodies with a cylindrical lead cover with only flank tumors exposed for radiation. ATRA (400 μg/mice/day) was administered by oral gavage for 10 days. For the two-tumor model, 1×10^6 and 0.7×10^6 MC38 cells were subcutaneously implanted into the right and left flank of mice respectively. For the tumor re-challenge assay, both the cured mice and the naive mice were re-challenged with 5×10^6 MC38 or 1×10^6 LLC cells respectively. Tumors were measured along two diameters (length and width) and depth twice weekly and volumes were calculated as length×width×depth/2. For CD8 and CD4 T cell depletion experiments, 200 μg antibodies were injected i.p. on day 0, 2, 5 and 8 after radiation. Anti-CD11b antibody was injected i.p. every two days starting 1 day before radiation. Anti-PD-L1 antibody was administered i.p. on day 0, 3, and 7 after radiation at 200 μg/mouse. Anti-IFN-γ was administered i.p. at 500 μg/mouse every 7 days. Anti-NK1.1 antibody was administered via i.p. at 25 μg/mouse every 3 days for 3 doses. Anti-GM-CSF antibody was given by i.p. injection at 250 μg/mouse every 2 days. […]

[4] = system: CT26 (a colon cancer model); assay: CT26 tumor growth after IR and RA (ablative IR); type: in vivo, mouse; conditions: IR and RA combination compared with single treatments
Experimental: 1×10^6 MC38, B16/F1, Renca or CT26 cells were subcutaneously implanted into flanks of mice. Tumors were irradiated using a Phillips IR250 orthovoltage X-ray generator (Phillips, Amsterdam, the Netherlands) operating at 250 kV 15 mA. Subcutaneous local tumors were irradiated by shielding bodies with a cylindrical lead cover with only flank tumors exposed for radiation. ATRA (400 μg/mice/day) was administered by oral gavage for 10 days. For the two-tumor model, 1×10^6 and 0.7×10^6 MC38 cells were subcutaneously implanted into the right and left flank of mice respectively. […] Tumors were measured along two diameters (length and width) and depth twice weekly and volumes were calculated as length×width×depth/2. For CD8 and CD4 T cell depletion experiments, 200 μg antibodies were injected i.p. on day 0, 2, 5 and 8 after radiation. Anti-CD11b antibody was injected i.p. every two days starting 1 day before radiation. Anti-PD-L1 antibody was administered i.p. on day 0, 3, and 7 after radiation at 200 μg/mouse. Anti-IFN-γ was administered i.p. at 500 μg/mouse every 7 days. Anti-NK1.1 antibody was administered via i.p. at 25 μg/mouse every 3 days for 3 doses. Anti-GM-CSF antibody was given by i.p. injection at 250 μg/mouse every 2 days. FTY720 was delivered via gavage at 20 μg per dose every day for 7 days. […]

[5] = IR+RA compared to other treatments

`CC1=C(/C=C/C(C)=C/C=C/C(C)=C/C(=O)O)C(C)(C)CCC1` [RA, all-trans retinoic acid] was tested, and the “IFN-β level in tumors” value [1, 5] was “significantly elevated”, the “IFN-γ level in tumors” value [1, 5] was “significantly elevated” and the “IL-1 level in tumors” value [1, 5] was “significantly elevated”. The “IL-6 level in tumors” value [1, 5] was “significantly elevated”, the “increase of GM-CSF in whole tumor homogenates” value ([1]; IR+RA, three days after treatment) was “more than 5 fold” and the “CXCL9 level in tumors” value ([1]; radiation and RA treatment) was “elevated”. The “CXCL10 level in tumors” value ([1]; radiation and RA treatment) was “elevated”, the “tumor cell death in vitro” value (MC38 cells [2]) was “no direct effects” and the “nitrite level in culture media of tumors cultured ex vivo” value (nitrite (iNOS product)) was 19.8 µM. For the same molecule, the “tumor formation after re-challenge with MC38 cells” value (MC38 cells [3]) was “did not form tumors” and the CT26 tumor growth [4] was “significant benefit”.

Source: patent US20240000741A1, “ALL-TRANS RETINOIC ACID ENHANCES RADIOTHERAPY AND OVERCOMES IMMUNE SUPPRESSION FOR CANCER THERAPY” (The University of Chicago, priority 2022, published 2024)
